The values that follow come from patent publication US6046186A, “Estrone sulfamate inhibitors of estrone sulfatase, and associated pharmaceutical compositions and methods of use” (SRI International, priority 1997, dated 2000).

Like-named read-outs stand apart in the source and are kept apart here.

Test [1] has as its target T1, Estrone Sulfatase (Homo sapiens, UniProt P08842).
T1 construct: endogenous in cells; host or cells: MCF-7 human breast cancer cells (American Type Culture Collection)
T1 sequence (P08842 22-583): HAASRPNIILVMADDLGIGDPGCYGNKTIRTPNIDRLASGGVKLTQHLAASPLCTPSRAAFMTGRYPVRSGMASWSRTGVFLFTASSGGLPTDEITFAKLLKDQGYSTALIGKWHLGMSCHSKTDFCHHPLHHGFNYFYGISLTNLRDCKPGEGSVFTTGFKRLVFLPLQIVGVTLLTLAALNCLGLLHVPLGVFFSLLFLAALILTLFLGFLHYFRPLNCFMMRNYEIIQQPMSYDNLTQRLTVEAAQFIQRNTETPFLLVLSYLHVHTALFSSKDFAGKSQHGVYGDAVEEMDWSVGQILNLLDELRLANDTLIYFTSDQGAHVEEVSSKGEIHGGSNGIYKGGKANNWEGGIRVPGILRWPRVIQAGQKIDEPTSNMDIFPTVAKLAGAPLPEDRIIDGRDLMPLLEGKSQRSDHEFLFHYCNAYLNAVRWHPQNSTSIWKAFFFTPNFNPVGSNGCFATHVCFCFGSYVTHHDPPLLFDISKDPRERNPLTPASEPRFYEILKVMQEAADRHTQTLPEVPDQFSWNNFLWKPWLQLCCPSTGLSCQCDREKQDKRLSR
Kind of test: Effects of Inhibitors on Estrone Sulfatase Activity in MCF-7 Cells. The test is classed as cell-based. An excerpt:
A. Effects of Inhibitors on Estrone Sulfatase Activity in MCF-7 Cells
Reagents: MCF-7 human breast cancer cell line was supplied by the American Type Culture Collection, Rockville, MD. Eagle's minimum essential medium (MEM) and fetal calf serum (FCS) were purchased from Sigma Chemical Company, St. Louis, Mo. [4-^14 C]Estrone, [6,7-^3 H]estradiol and [6,7-^3 H](N)estrone sulfate were obtained from New England Nuclear Research Products, Boston, Mass.
Procedure: The method of Duncan et al., Cancer Res. 53:298-303 (1993) was employed. MCF-7 cells were seeded in 60 mm×15 mm culture dishes at 1×10^5 cells/dish and maintained in 4.0 ml of MEM containing 2 mM glutamine and 5% FCS. The cells were incubated at 37° C. in an atmosphere of 5% CO2 /95% air and 100% humidity, with the medium changed every third day. When the cells reached 80% confluency, the intact monolayers were washed once with Earl's balanced salt solution and incubated in 4.0 ml of serum and phenol re-free MEM containing either the substrate (^3 H-estrone sulfate, 7 pmol, 9×10^5 dpm) and inhibitor dissolved in ethanol, or ethanol alone. The fmal ethanol concentration was always below 1%. The incubation continued under the regular conditions for 24 h. At the end of 24 h, 2.0 ml of medium was transferred into separate tubes containing 7×10^3 dpm of ^14 C-estrone. The mixture was vortexed vigorously for 60 s with 5 ml of toluene. After phase separation, 2.0 ml of the organic phase was transferred into a counting vial for scintillation counting. The amount of estrone sulfate hydrolyzed was calculated on the basis of ^3 H counts obtained, with the added ^14 C-estrone counts used to correct for recovery through the extraction procedure.
The cells remaining in each culture dish were washed once with saline and then scraped with 1.0 ml of 0.5 N NaOH into 10×75 mm tubes. The cell pellets in each tube was incubated at 50° C. for 20 min to ensure that digestion was complete and all proteins had became soluble. An aliquot was then taken for protein determination by Lowry's method (Lowry et al., J. Biol. Chem. 193:265-275 (1951)).
The percentage of inhibition was determined by evaluating the quantity of estrone sulfate hydrolyzed with the inhibitor relative to that without the inhibitor.
As a general practice, all available inhibitors were first tested at 100 μM; the ones showing inhibitory effects at that concentration were tested again at various concentrations to obtain the IC50 values.

Test [2] has as its system uterus. Kind of test: Uterotrophic assay (estrogenic activity from uterine weights). The note with it: female rats, test compound alone once daily for 7 days, s.c. or oral gavage; uterine weight vs vehicle control. In kind it is in vivo, Sprague Dawley rats. On the set-up: scale not given here. The source says:
B. Uterotrophic and antiuterotrophic assays
Sprague Dawley rates are obtained from Simmonsen Laboratories, Gilroy, Calif. Estradiol benzoate may be purchased from Sigma Chemical Co., St. Louis, Mo.
The procedure of Wakeling et al., Endocrinology 99:447453 (1983) is followed. Female Sprague Dawley rats weighing 40-50 grams are used for the experiment. In general, animals are quarantined for 3 days after arrival at the experimental site.
Rats are initially weighed and randomly divided into groups with 5 animals in each group. For the uterotrophic assay, animals are dosed once daily with various doses of test compounds in 0.1 or 1.0 ml of sterile saline via subcutaneous injection or oral gavage, respectively. For the antiuterotrophic assay, animals are dosed once daily with the same doses indicated above plus 0.5 μg/rat of estradiol benzoate alone.
The animals are treated for 7 days. On day 8, animals are weighed and then sacrificed. The uterus of each animal is removed immediately after death and weighed; fat materials are trimmed off prior to weighing.
A comparison of uterine weights from the groups receiving test compound alone with those of the vehicle control group gives the estrogenic activity. Antiestrogenic activity is obtained by comparing the uterine weights from the groups receiving test compound plus estradiol with those of the estradiol control group.

Setting [3] is: intact MCF-7 human breast cancer cells, 3H-estrone sulfate substrate, 24 h, 37° C., read-out: Estrone Sulfatase Inhibitory Activity IC50.

Consider `C#CC1=CC[C@H]2[C@@H]3CCc4cc(OS(N)(=O)=O)ccc4[C@H]3CC[C@]12C` [Compound 5, 19-Norpregna-1,3,5(10),16-tetraen-20-yne-3-O-sulfamate], for which the IC50 in test [1] (setting [3]) worked out at 0.25 nM. For the same compound, in test [2], the “Estrogenic Activity” value came to 0.40.
Consider `CC(=O)C1=CC[C@H]2[C@@H]3CCc4cc(OS(N)(=O)=O)ccc4[C@H]3CC[C@]12C` [Compound 7, 19-Norpregna-1,3,5(10),16-tetraen-20-one-3-O-sulfamate], for which the IC50 in test [1] (setting [3]) amounted to 0.021 nM. The “Estrogenic Activity” value in test [2] came out at 0.66.
The matching figures for `CC(=O)[C@H]1CC[C@H]2[C@@H]3CCc4cc(OS(N)(=O)=O)ccc4[C@H]3CC[C@]12C` [Compound 10, 19-Norpregna-1,3,5(10)trien-20-one-3-O-sulfamate]: 2 nM and 0.
The matching figures for `C/C=C1/CC[C@H]2[C@@H]3CCc4cc(OS(N)(=O)=O)ccc4[C@H]3CC[C@]12C` [Compound 13, [17(20)Z]-19-Norpregna-1,3,5(10),17(20)-tetraene-3-O-sulfamate]: 0.08 nM and 0.05.
For `CC/C=C1/CC[C@H]2[C@@H]3CCc4cc(OS(N)(=O)=O)ccc4[C@H]3CC[C@]12C` [Compound 15, [17(20)Z]-Propylideneestra-1,3,5(10)-triene-3-O-sulfamate], in test [1] (setting [3]), the IC50 worked out at 0.038 nM. Besides, in test [2], the “Estrogenic Activity” value stood at 0.30.
As to `CCC/C=C1/CC[C@H]2[C@@H]3CCc4cc(OS(N)(=O)=O)ccc4[C@H]3CC[C@]12C` [Compound 17, [17(20)Z]-19,21-Dinorchola-1,3,5(10)17(20)-tetraene-3-O-sulfamate], the IC50 in test [1] (setting [3]) came to 0.011 nM. Moreover, the “Estrogenic Activity” value in test [2] was 0.55.
The matching figures for `CC[C@H]1CC[C@H]2[C@@H]3CCc4cc(OS(N)(=O)=O)ccc4[C@H]3CC[C@]12C` [Compound 19, 19-Norpregna-1,3,5(10)-triene-3-O-sulfamate]: 0.02 nM and 0.54.
For the compound `CCC[C@H]1CC[C@H]2[C@@H]3CCc4cc(OS(N)(=O)=O)ccc4[C@H]3CC[C@]12C` [Compound 21, 17β-Propylestra-1,3,5(10)-triene-3-O-sulfamate], the IC50 in test [1] (setting [3]) turned out to be 0.034 nM. Also, the “Estrogenic Activity” value in test [2] is given as 0.
The matching figures for `CCCC[C@H]1CC[C@H]2[C@@H]3CCc4cc(OS(N)(=O)=O)ccc4[C@H]3CC[C@]12C` [Compound 23, 19,21-Dinorchola-1,3,5(10)-triene-3-O-sulfamate]: 0.096 nM and 0.02.
The matching figures for `CC/C=C1\CC[C@H]2[C@@H]3CCc4cc(OS(N)(=O)=O)ccc4[C@H]3CC[C@]12C` [Compound 28, [17(20)E]-Propylideneestra-1,3,5(10)-triene-3-O-sulfamate]: 0.027 nM and 0.20.
The matching figures for `CCOC(=O)/C=C1/CC[C@H]2[C@@H]3CCc4cc(OS(N)(=O)=O)ccc4[C@H]3CC[C@]12C` [Compound 32, Ethyl 3-Sulfamoyloxy-[17(20)Z]-19-norpregna-1,3,5(10),17(20)-tetraen-21-oate]: 2.7 nM and 0.
On to `CCOC(=O)/C=C1\CC[C@H]2[C@@H]3CCc4cc(OS(N)(=O)=O)ccc4[C@H]3CC[C@]12C` [Compound 34, Ethyl 3-Sulfamoyloxy-[17(20)E]-19-norpregna-1,3,5(10),17(20)-tetraen-21-oate], for which the IC50 in test [1] (setting [3]) was determined as 0.27 nM. Also, the “Estrogenic Activity” value in test [2] stood at 0.
The matching figures for `C[C@]12CC[C@@H]3c4ccc(OS(N)(=O)=O)cc4CC[C@H]3[C@@H]1CCC2=C(C#N)C#N` [Compound 36, 20-Cyano-19-norpregna-1,3,5(10),17(20)-tetraene-21-nitrile-3-O-sulfamate]: 0.09 nM and 0.44.
The matching figures for `CN(C)CCOC/C=C1\CC[C@H]2[C@@H]3CCc4cc(OS(N)(=O)=O)ccc4[C@H]3CC[C@]12C` [Compound 39, 21-(2'-N,N-Dimethylaminoethoxy)-[17(20)E]-19-norpregna-1,3,5(10),17(20)-tetraene-3-O-sulfamate]: 34 nM and 0.
As to `CN(C)CCO[C@H]1CC[C@H]2[C@@H]3CCc4cc(OS(N)(=O)=O)ccc4[C@H]3CC[C@]12C` [Compound 44, 17β-(2'-N,N-Dimethylaminoethoxy)estra-1,3,5(10)-triene-3-O-sulfamate], the IC50 in test [1] (setting [3]) came out at 24 nM. Further, the “Estrogenic Activity” value in test [2] came to 0.
The matching figures for `CN(C)CCCO[C@H]1CC[C@H]2[C@@H]3CCc4cc(OS(N)(=O)=O)ccc4[C@H]3CC[C@]12C` [Compound 47, 17β-(3'-N,N-Dimethylaminopropoxy)estra-1,3,5(10)-triene-3-O-sulfamate]: 23 nM and 0.27.
On to `CC(C)(C)[Si](C)(C)O[C@@H]1CC[C@H]2[C@@H]3CCc4cc(OS(N)(=O)=O)ccc4[C@H]3CC[C@]12C` [Compound 52, 17α-tert-Butyldimethylsilyloxyestra-1,3,5(10)-triene-3-O-sulfamate], for which, in test [1], the IC50 was 0.31 nM. Further, in test [2], the “Estrogenic Activity” value is given as 0.
For the compound `CN(C)CCO[C@@H]1CC[C@H]2[C@@H]3CCc4cc(OS(N)(=O)=O)ccc4[C@H]3CC[C@]12C` [Compound 55, 17α-(2'-N,N-Dimethylaminoethoxy)estra-1,3,5(10)-triene-3-O-sulfamate], the IC50 in test [1] (setting [3]) was determined as 26 nM. In addition, in test [2], the “Estrogenic Activity” value is 0.
For the compound `CC(=O)O[C@H]1CC[C@H]2[C@@H]3CCc4cc(OS(N)(=O)=O)c(C#N)cc4[C@H]3CC[C@]12C` [Compound 59, 2-Cyanoestra-1,3,5(10)-trien-17β-ol-3-O-sulfamate 17β-O-acetate], the IC50 in test [1] (setting [3]) is 0.3 nM. Besides, the “Estrogenic Activity” value in test [2] is given as 0.
On to `COC(=O)c1cc2c(cc1OS(N)(=O)=O)CC[C@@H]1[C@@H]2CC[C@]2(C)C(=O)CC[C@@H]12` [Compound 65, 2-Methoxycarbonylestra-1,3,5(10)-trien-17-one-3-O-sulfamate], for which the “Estrogenic Activity” value in test [2] came to 0.
On to `COc1cc2c(cc1OS(N)(=O)=O)CC[C@@H]1[C@@H]2CC[C@]2(C)C(=O)CC[C@@H]12` [Compound 67, 2-Methoxyestra-1,3,5(10)-trien-17-one-3-O-sulfamate], for which the midpoint of inhibition in test [1], the IC50, lay at 0.016 nM. Moreover, the “Estrogenic Activity” value in test [2] is on record as 0.
For the compound `C/C=C1/CC[C@H]2[C@@H]3CCc4cc(OS(N)(=O)=O)c(OC)cc4[C@H]3CC[C@]12C` [Compound 69, 2-Methoxy-[17(20)Z]-19-norpregna-1,3,5(10),17(20)-tetraene-3-O-sulfamate], the IC50 in test [1] (setting [3]) was 2.5 nM. Also, in test [2], the “Estrogenic Activity” value is 0.
In the case of `CC[C@H]1CC[C@H]2[C@@H]3CCc4cc(OS(N)(=O)=O)c(OC)cc4[C@H]3CC[C@]12C` [Compound 71, 2-Methoxy-19-norpregna-1,3,5(10)-triene-3-O-sulfamate], in test [1] (setting [3]), the IC50 was 1.5 nM. In addition, the “Estrogenic Activity” value in test [2] amounted to 0.

As a reminder, the IC50 is the point on the concentration scale where inhibition reaches its midpoint.
